Source: patent EP4778922A1, “BICYCLIC COMPOUND, AND PREPARATION METHOD THEREFOR AND PHARMACEUTICAL USE THEREOF” (Shanghai Jeyou Pharmaceutical Co., Ltd., priority 2023, dated 2025)
Like-named read-outs stand apart in the source and are kept apart here.

How the values were obtained:
[1] = test system: LNCaP cells; assay: Cell proliferation inhibition assay in LNCaP cells (0.2 nM DHT, CellTiter-Glo, 7 days); type: cell-based, human
Procedure: • 1. The human prostate cancer cell lines 22RV1 and LNCaP were purchased from ATCC. […] The cell concentration was adjusted to an appropriate concentration (determined based on the results of cell density optimization experiments), and the cells were seeded into a 96-well plate. A 100 µL cell suspension was added, resulting in 3000 cells per well. […] On the second day, for 22Rv1 cells, test compounds at different concentrations were added, and the cells were incubated at 37°C in a 5% CO2 incubator for 7 days; for LNCaP cells, test compounds at different concentrations were added first, and after 1 hour of treatment, 0.2 nM DHT was added. The cells were then incubated at 37°C in a 5% CO2 incubator for 7 days. • 4. After the incubation period, a volume of CellTiter-Glo detection reagent equal to the volume of the culture medium was added to each well. The plate was shaken and mixed thoroughly for 5 minutes, then incubated at room temperature for 10 minutes. Readings were taken using a PerkinElmer EnVision microplate reader. • 5.
The IC50 curve was fitted and the IC50 value was calculated using the software GraphPad Prism 8 with the calculation formula XY-analysis/Nonlinear regression (curve fit)/Dose response-Inhibition/log (inhibitor) vs. response-Variable slope (four parameters).

[2] = molecular target: T1, CYP2C19 (Homo sapiens, UniProt P33261); assay: CYP inhibition assay in human liver microsomes; type: in vitro ADME; settings: human liver microsomes, NADPH; read-out: CYPs 2C19 (IC50)
T1 construct: co-incubated with human liver microsomes; from tissue; host or cells: human liver microsomes
T1 sequence (P33261 whole entry): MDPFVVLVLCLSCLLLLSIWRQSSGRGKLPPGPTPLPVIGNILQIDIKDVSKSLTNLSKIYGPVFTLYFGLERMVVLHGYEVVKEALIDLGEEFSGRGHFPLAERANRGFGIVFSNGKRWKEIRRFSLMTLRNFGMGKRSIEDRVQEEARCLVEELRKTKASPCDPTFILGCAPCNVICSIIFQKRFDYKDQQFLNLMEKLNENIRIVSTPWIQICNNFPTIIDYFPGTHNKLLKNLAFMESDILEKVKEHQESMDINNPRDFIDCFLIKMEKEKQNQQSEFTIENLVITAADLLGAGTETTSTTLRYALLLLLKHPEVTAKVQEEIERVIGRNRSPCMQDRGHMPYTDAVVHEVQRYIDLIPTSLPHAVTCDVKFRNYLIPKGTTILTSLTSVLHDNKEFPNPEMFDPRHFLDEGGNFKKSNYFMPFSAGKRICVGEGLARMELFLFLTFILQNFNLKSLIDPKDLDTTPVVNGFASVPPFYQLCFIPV
Procedure: (§1) Test Example 3: CYP Inhibition Assay
(§2) An in vitro assay system was used to evaluate the effects of the compounds on the activities of several human liver microsomal cytochrome P450 (CYP) isozymes (CYP1A2, CYP2C9, CYP2D6, CYP3A4 (testosterone/midazolam), CYP2C19, and CYP2C8). Specific probe substrates for CYP450 isozymes were co-incubated with human liver microsomes and the compound at various concentrations (0, 0.0300, 0.100, 0.300, 1.00, 3.00, 10.0 µM). The reaction was initiated by adding the coenzyme NADPH. After the reaction was completed, the samples were processed, and the metabolites generated from the probe substrates were detected by liquid chromatography-tandem mass spectrometry (LC-MS/MS). Based on the resulting dose-response curves, the IC50 values of the test compounds for the probe substrate reactions catalyzed by each CYP isozyme were calculated.

[3] = molecular target: T2, CYP3A4 (testosterone/midazolam) (Homo sapiens, UniProt P08684); assay: CYP inhibition assay in human liver microsomes; type: in vitro ADME
T2 construct: co-incubated with human liver microsomes; from tissue; host or cells: human liver microsomes
T2 sequence (P08684 whole entry): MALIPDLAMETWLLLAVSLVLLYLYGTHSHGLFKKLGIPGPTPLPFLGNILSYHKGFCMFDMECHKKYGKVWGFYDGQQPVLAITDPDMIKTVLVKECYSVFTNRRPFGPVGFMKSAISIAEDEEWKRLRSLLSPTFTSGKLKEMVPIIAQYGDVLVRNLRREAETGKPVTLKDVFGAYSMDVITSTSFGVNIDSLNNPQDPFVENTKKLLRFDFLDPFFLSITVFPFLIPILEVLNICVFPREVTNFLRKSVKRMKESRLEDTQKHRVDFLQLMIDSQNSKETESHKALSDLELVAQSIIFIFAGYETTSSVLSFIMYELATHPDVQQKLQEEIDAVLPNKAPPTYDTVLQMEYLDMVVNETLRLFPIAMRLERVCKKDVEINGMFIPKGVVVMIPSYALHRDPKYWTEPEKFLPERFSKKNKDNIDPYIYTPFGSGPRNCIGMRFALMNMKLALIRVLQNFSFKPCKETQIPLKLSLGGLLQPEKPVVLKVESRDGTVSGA
Procedure: as §1, §2

[4] = molecular target: T3, CYP2C8 (Homo sapiens, UniProt P10632); assay: CYP inhibition assay in human liver microsomes; type: in vitro ADME; settings: human liver microsomes, NADPH; read-out: CYPs 2C8 (IC50)
T3 construct: co-incubated with human liver microsomes; from tissue; host or cells: human liver microsomes
T3 sequence (P10632 1-490): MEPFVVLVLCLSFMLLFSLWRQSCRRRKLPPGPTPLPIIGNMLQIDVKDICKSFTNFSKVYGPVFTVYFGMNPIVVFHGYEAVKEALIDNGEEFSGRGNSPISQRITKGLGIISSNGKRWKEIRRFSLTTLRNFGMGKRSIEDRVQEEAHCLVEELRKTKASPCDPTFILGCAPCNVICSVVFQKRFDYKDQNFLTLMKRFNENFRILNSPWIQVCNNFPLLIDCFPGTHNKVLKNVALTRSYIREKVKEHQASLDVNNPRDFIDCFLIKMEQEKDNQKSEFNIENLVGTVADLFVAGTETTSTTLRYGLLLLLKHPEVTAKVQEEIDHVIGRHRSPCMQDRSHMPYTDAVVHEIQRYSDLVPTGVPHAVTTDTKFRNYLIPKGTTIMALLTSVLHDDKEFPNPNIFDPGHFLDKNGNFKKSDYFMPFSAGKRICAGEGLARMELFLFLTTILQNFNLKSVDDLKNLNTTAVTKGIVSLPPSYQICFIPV
Procedure: as §1, §2

[5] = Mouse pharmacokinetic test; type: in vivo, ICR mice; settings: PO-30mpk, 30 mg/kg
Procedure, shortened: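 Male naive ICR mice (25–30 g, n=3 per route) received a single intravenous or oral dose, with feeding resumed 4 h post-dose. Blood was centrifuged at 4°C, and plasma was stored at -80°C until analysis.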

[6] = test system: 22RV1 cells; assay: Cell proliferation inhibition assay in 22RV1 cells (CellTiter-Glo, 7 days); type: cell-based, human
Procedure, shortened: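 LNCaP and 22RV1 human prostate cancer cells, 3000 per well, exposed to graded compound for 7 days at 37°C, 5% CO2; LNCaP got 0.2 nM DHT 1 h after compound. Viability by CellTiter-Glo luminescence; IC50 from four-parameter variable-slope fit.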

[7] = molecular target: T4, CYP2C9 (Homo sapiens, UniProt P11712); assay: CYP inhibition assay in human liver microsomes; type: in vitro ADME; settings: human liver microsomes, NADPH; read-out: CYPs 2C9 (IC50)
T4 construct: co-incubated with human liver microsomes; from tissue; host or cells: human liver microsomes
T4 sequence (P11712 whole entry): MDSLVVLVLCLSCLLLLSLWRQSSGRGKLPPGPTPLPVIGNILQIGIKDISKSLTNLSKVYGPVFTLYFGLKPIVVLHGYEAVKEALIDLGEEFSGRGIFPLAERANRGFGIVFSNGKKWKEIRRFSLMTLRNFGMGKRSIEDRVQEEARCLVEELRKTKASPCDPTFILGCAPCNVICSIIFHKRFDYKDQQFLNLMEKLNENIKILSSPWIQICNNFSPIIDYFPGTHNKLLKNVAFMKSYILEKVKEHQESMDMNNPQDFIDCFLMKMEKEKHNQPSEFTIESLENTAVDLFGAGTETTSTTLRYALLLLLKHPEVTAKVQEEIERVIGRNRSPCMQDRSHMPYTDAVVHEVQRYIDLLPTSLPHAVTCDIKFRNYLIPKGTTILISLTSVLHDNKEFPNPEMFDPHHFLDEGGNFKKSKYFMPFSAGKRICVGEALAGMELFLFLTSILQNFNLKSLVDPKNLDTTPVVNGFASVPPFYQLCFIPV
Procedure: as §1, §2

[8] = probe substrate midazolam, read-out: CYPs 3A4 (Midazolam) (IC50)
[9] = probe substrate testosterone, read-out: CYPs 3A4 (Testosterone) (IC50)

Structure (SMILES)	IC50 ([1]; Homo sapiens, LNCaP, 168 h) [µM]	IC50 [3, 8] [µM]	IC50 [3, 9] [µM]	IC50 [4] [µM]	IC50 ([6]; Homo sapiens, 22Rv1, 168 h) [µM]	IC50 ([1]; Homo sapiens, 168 h) [µM]	IC50 ([6]; Homo sapiens, 168 h) [µM]	also measured
CC(C)(c1ccc(-c2cnc(OCc3ccnc(N4CC(S(=N)(=O)C5CC5)C4)n3)cn2)cc1)c1cc(Cl)c(OCCCl)c(C#N)c1 (single isomer, unassigned) [Compound 350A]	0.055	> 10	> 10	> 10	–	–	–	IC50 [2]: > 10 µM
CC(C)(c1ccc(-c2cnc(OCc3ccnc(N4CC5(CCS5(=N)=O)C4)n3)cn2)cc1)c1cc(Cl)c(OCCCl)c(C#N)c1 (single isomer, unassigned) [Compound 375A]	–	> 10	> 10	> 10	0.089	–	–	IC50 [1]: 0.058 µM; IC50 [2]: > 10 µM; AUCi [5]: 1307.079 µg·h/mL; Cmax ([5]; plasma, po): 109000 ng/mL; half-life ([5]; plasma, po): 6.82 h; Tmax ([5]; plasma, po, read-out: Tmax): 3.3 h
CC(C)(c1ccc(-c2cnc(OCc3ccnc(N4CC5(CCS5(=N)=O)C4)n3)cn2)cc1)c1cc(Cl)c(OCCCl)c(C#N)c1 (single isomer, unassigned) [Compound 375B]	0.1	> 10	> 10	> 10	–	–	–	IC50 [2]: > 10 µM; AUCi [5]: 2620.877 µg·h/mL; Cmax (PO) [5]: 153425 ng/mL; T1/2 [5]: 8.67 h; Tmax [5]: 4.0 h; IC50 [6]: 0.12 µM
CC(C)(c1ccc(-c2ccc(OCc3ccnc(N=S4(=O)CCCC4)n3)cc2)cc1)c1cc(Cl)c(OCCCl)c(C#N)c1 [Compound 7]	–	> 10	> 10	> 10	0.46	–	–	IC50 [7]: 7.3 µM; AUC(0-inf) ([5]; plasma, po): 161 µg·h/mL; Cmax ([5]; plasma, po): 12300 ng/mL; half-life ([5]; plasma, po): 5 h; Tmax ([5]; plasma, po, read-out: Tmax): 3.3 h
CC(C)(c1ccc(-c2ccc(OCc3ccnc(N=S4(=O)CCOCC4)n3)cn2)cc1)c1cc(Cl)c(OCCCl)c(C#N)c1 [Compound 62]	0.83	–	–	–	0.26	–	–	AUC(0-inf) ([5]; plasma, po): 188 µg·h/mL; Cmax ([5]; plasma, po): 19900 ng/mL; half-life ([5]; plasma, po): 2 h; Tmax ([5]; plasma, po, read-out: Tmax): 2 h
CC(C)(c1ccc(-c2ccc(OC3CCN(c4ccnc(N=S5(=O)CCCC5)n4)CC3)cc2)cc1)c1cc(Cl)c(OCCCl)c(C#N)c1 [Compound 65]	–	> 10	> 10	4.3	1.18	–	–	IC50 [2]: > 10 µM; IC50 [7]: > 10 µM
Cc1cc(OCc2ccnc(P(C)(C)=O)n2)ccc1-c1ccc(C(C)(C)c2cc(Cl)c(OCCCl)c(C#N)c2)cc1 [Compound 119]	0.94	–	–	–	0.74	–	–	AUC(0-inf) ([5]; plasma, po): 333 µg·h/mL; Cmax ([5]; plasma, po): 17400 ng/mL; half-life ([5]; plasma, po): 11.8 h; Tmax ([5]; plasma, po, read-out: Tmax): 4.7 h
CC(C)(c1ccc(-c2cnc(OCc3ccnc(N=S4(=O)CCOCC4)n3)cn2)cc1)c1cc(Cl)c(OCCCl)c(C#N)c1 [Compound 206]	0.98	–	–	–	0.41	–	–	AUC(0-inf) ([5]; plasma, po): 236 µg·h/mL; Cmax ([5]; plasma, po): 32100 ng/mL; half-life ([5]; plasma, po): 1.7 h; Tmax ([5]; plasma, po, read-out: Tmax): 2 h
CC(C)(c1ccc(-c2ccc(/C=C/c3cnc(P(C)(C)=O)nc3)cc2)cc1)c1cc(Cl)c(OCCCl)c(C#N)c1 [Compound 234]	0.58	–	–	–	0.35	–	–	AUC(0-inf) ([5]; plasma, po): 307 µg·h/mL; Cmax ([5]; plasma, po): 13400 ng/mL; half-life ([5]; plasma, po): 11 h; Tmax ([5]; plasma, po, read-out: Tmax): 7 h
CC(C)(c1ccc(-c2ccc(OCC3CC(CN4CC(S(C)(=O)=O)C4)C3)cc2)cc1)c1cc(Cl)c(OCCCl)c(C#N)c1 (stereo not drawn) [Compound 302]	–	> 10	> 10	> 10	1.41	–	–	IC50 [2]: > 10 µM; IC50 [7]: > 10 µM
CC(C)(c1ccc(-c2cnc(OCc3ccnc(N4CC(S(N)(=O)=O)C4)n3)cn2)cc1)c1cc(Cl)c(OCCCl)c(C#N)c1 [Compound 378]	0.061	> 10	> 10	> 10	0.17	–	–	IC50 [2]: > 10 µM
CC(=O)c1nccc(COc2ccc(-c3ccc(C(C)(C)c4cc(Cl)c(OCCCl)c(C#N)c4)cc3)cc2)n1 [Compound 440]	–	–	–	–	–	0.57	0.99	–
CC(C)(c1ccc(-c2ccc3cc(OCc4ccnc(P(C)(C)=O)n4)ccc3c2)cc1)c1cc(Cl)c(OCCCl)c(C#N)c1 [Compound 442]	–	–	–	–	–	0.16	0.38	–
CC(C)(c1ccc(-c2cnc(OCc3ccnc(N4CCC5(CC4)CS(=N)(=O)C5)n3)cn2)cc1)c1cc(Cl)c(OCCCl)c(C#N)c1 [Compound 444]	–	–	–	–	–	0.13	0.12	–
CC(C)(c1ccc(-c2ccc(OCC34CC(c5cnc(P(C)(C)=O)nc5)(C3)C4)nc2)cc1)c1cc(Cl)c(OCCCl)c(C#N)c1 [Compound 445]	–	–	–	–	–	0.08	0.13	–
CC(C)(c1cnc(-c2ccc(OCc3ccnc(N4CC(S(C)(=O)=O)C4)n3)cc2)nc1)c1cc(Cl)c(OCCCl)c(C#N)c1 [Compound 446]	–	–	–	–	–	0.14	0.31	–
CNS(=O)(=O)C1CN(c2nccc(COc3cnc(-c4ccc(C(C)(C)c5cc(Cl)c(OCCCl)c(C#N)c5)cc4)cn3)n2)C1 [Compound 462]	–	–	–	–	–	0.042	0.16	–
CC(C)(c1ccc(-c2ccc(OCc3ccnc(N4C5CCC4CC(S(C)(=O)=O)C5)n3)cc2)cc1)c1cc(Cl)c(OCCCl)c(C#N)c1 (stereo not drawn) [Compound 463]	–	–	–	–	–	0.093	0.088	–
CC(C)(c1cc(Cl)c(OCCCl)c(C#N)c1)c1ccc(-c2ccc(OCc3ccnc(N4CC(S(C)(=O)=O)C4)n3)cn2)cn1 [Compound 471]	–	–	–	–	–	0.43	0.95	–
CC(C)(c1cc(Cl)c(OCCCl)c(C#N)c1)c1ccc(-c2ccc(OCc3ccnc(N4CC(S(C)(=O)=O)C4)n3)cc2)cn1 [Compound 476]	–	–	–	–	–	0.044	0.17	–
CC(C)(c1cc(Cl)c(OCCCl)c(C#N)c1)c1ccc(-c2ccc(OCc3ccnc(N4CC(S(C)(=N)=O)C4)n3)cc2)cn1 (stereo not drawn) [Compound 477]	–	–	–	–	–	0.24	0.69	–
